Results on 12 compounds are retold here after patent US11535633B2, “Fused tricyclic heterocycle compounds and therapeutic uses thereof” (Jiangsu Hengrui Medicine Co., Ltd., priority 2018, dated 2022).

For experiment [1], the target named is T1, hSTING c-terminal domain (purified hSTING aa154-342) (Homo sapiens, UniProt Q86WV6).
T1 construct: Purified hSTING (aa154-342)
As to the kind of experiment: Thermal shift assay for measuring the relative binding affinity to hSTING c-terminal domain. Conditions: Tm of sample minus mean Tm of negative control (buffer, 2% DMSO), SYPRO Orange. Here is the method:
Test Example 1. Thermal Shift Assay for Measuring the Relative Binding Affinity to hSTING c-Terminal Domain
From each of the 10 mM stock solutions of compounds in DMSO, dilutions are made to create samples with three concentrations 10 mM, 5 mM and 2.5 mM. From these dilutions a final 50 fold dilution is made into assay buffer, giving concentrations of 200 μM, 100 μM, and 50 μM. From each of the buffer dilutions, 5 μL is added to the 384 well assay plate. A positive control is setup with cGAMP using the same dilution scheme as the ligands. A baseline thermal shift for the negative control is determined using buffer and 2% DMSO.
An aliquot of protein is thawed on ice and SYPRO orange reagent is brought to room temperature. The 5000× SYPRO orange stock is diluted in assay buffer to a concentration of 10×. Protein is diluted to a concentration of 10 μM in the prepared buffer/dye solution. Five micro-liters of protein/buffer/dye solution is added to each of the sample and control wells, and the plate is sealed with the provided films. The plate is centrifuged for 5 min at 20° C. at 1000 rpm.
On the Light Cycler instrument, measurements are made over a temperature gradient from 20° C. to 99° C. at 0.07° C./s and data acquisitions collected at a rate of 8/° C. is used to measure the change in fluorescence as a function of temperature. Data analysis is performed using the Roche Light Cycler Software to determine the melting temperature (Tm ° C.) of each sample. A mean Tm ° C. for the negative control is calculated and subtracted from each of the samples to generate the ΔTm ° C. values for each of the ligands.
The relative binding affinity to hSTING c-terminal domain of the compounds of the present invention was determined by the above assay, and ΔTm ° C. values are shown in the following table 1.

Another experiment relates to Human PBMC cells. Description: IFNβ secretion in human PBMC. The format is cell-based. The settings on record: IFNβ in supernatant by ELISA, 5 hours incubation. Here is the method:
Test Example 3. IFNβ Secretion in Human PBMC
• 1. Human PBMC cells (STEMCELL Technologies) • 2. Lymphocyte Medium (Zenbio) • 3. Culture and compound dilution media: RPMI with high glucose and glutamine (Genesee, Cat. #25-506), 10% fetal bovine serum (Life Technologies, Cat. #10082147), 100 μg/ml Normocin (InvivoGen, Cat. #ant-nr-2) and Penicillin-Streptomycin (100×) (Life Technologies, Cat. #15140122) • 4. Human IFNβ Quantikine ELISA kit (R&D systems) • 5. Infinite M1000 plate reader (TECAN) Experimental Procedure
Cryopreserved peripheral blood human mononuclear cells (PBMCs) were rapidly thawed and resuspended in Lymphocyte Media and centrifuged at 500×g for 5 minutes. The supernatant was removed and the cell pellets were gently resuspended in cell culture and compound dilution media. Human PBMC cells were plated in a 96-well format at a concentration of 1.5×10^5 cells per well. The test compounds, at varying concentrations, or vehicle control (<0.3% DMSO) were mixed with the cells giving a final volume of 150 μl per well. The plates were incubated for 5 hours in a humidified, 5% CO2 incubator at 37° C. After incubation, the human IFNβ in the supernatant and the IFNβ standard controls were measured using human IFNβ Quantikine ELISA kit according to the manufacturer's protocol. The absorbance at 450 nm was measured with Infinite M1000 plate reader and corrected by background reading at 540 nm of each well. The amount of […] based on the standard curves. The plot of IFNβ concentration versus the log of compound concentration was fit in GraphPad Prism with a 4-parameter concentration response equation to calculate EC50 and Emax.

The target in experiment [2] is T2, STING in THP1-Dual KI-hSTING-R232 cells (Homo sapiens, UniProt Q86WV6, H232R).
T2 construct: host or cells: THP1-Dual KI-hSTING-R232 cells (human monocytic THP-1 reporter line)
As to the kind of experiment: Human THP1 reporter cell assay (IRF luciferase reporter). It is filed as cell-based. The settings on record: 24 hours incubation. As for the experimental part:
Test Example 2. Human THP1 Reporter Cell Assay
• 1. Human THP1-Dual KI-hSTING-R232 Cells (InvivoGen, Cat. #thpd-r232) • 2. QUANTI-LUC (InvivoGen, Cat. #rep-qlc2) • 3. Media for cell culture and compound dilution: RPMI with high glucose and glutamine (Genesee, Cat. #25-506), 10% fetal bovine serum (Life Technologies, Cat. #10082147), 25 mM HEPES (Genesee, Cat. #25-534), 100 μg/ml Normocin (InvivoGen, Cat. #ant-nr-2), 10 μg/ml blasticidin (InvivoGen, Cat. #ant-bl-05), 100 μg/ml Zeocin (InvivoGen, Cat. #ant-zn-5p) and Penicillin-Streptomycin (100×) (Life Technologies, Cat. #15140122) • 4. Infinite M1000 plate reader (TECAN) Experimental Procedure
Activation of STING in THP1-Dual KI-hSTING-R232 cells was determined by measuring the luminescence signal resulting from the expression of the IRF luciferase reporter gene. All reagent preparation and assay procedures were conducted according to the protocols provided by InvivoGen. In brief, test compounds and cells (1×10^5 cells per well) were dispensed into 96-well plates with a final volume per well of 150 μl. Plates were incubated in a humidified, 5% CO2 incubator at 37° C. for 24 hours. The expression level of the reporter gene was measured by transferring 20 μl of the supernatant to a non-transparent 96-well plate to which 50 μl of QUANTI-LUC was dispensed into each well. The resulting luminescence signal was immediately read using a TECAN plate reader. The background luminescence signal from media was subtracted. The fold induction effect of the luminescence signal at each compound concentration was determined relative to controls that lack compound treatment. The plot of fold induction effect versus the log of compound concentration was fit in GraphPad Prism with a 4-parameter concentration response equation to calculate EC50 and Emax.
Activation of STING in THP1 of the compounds in the present invention was determined by the above assay, and EC50 values are shown in the following table 2.

T1 sequence (Q86WV6 154-342): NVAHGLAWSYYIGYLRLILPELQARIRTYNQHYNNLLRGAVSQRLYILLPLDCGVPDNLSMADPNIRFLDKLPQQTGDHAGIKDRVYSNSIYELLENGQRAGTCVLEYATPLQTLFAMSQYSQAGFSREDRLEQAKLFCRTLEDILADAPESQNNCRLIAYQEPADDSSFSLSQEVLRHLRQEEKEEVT
T2 sequence (Q86WV6 whole entry H232R): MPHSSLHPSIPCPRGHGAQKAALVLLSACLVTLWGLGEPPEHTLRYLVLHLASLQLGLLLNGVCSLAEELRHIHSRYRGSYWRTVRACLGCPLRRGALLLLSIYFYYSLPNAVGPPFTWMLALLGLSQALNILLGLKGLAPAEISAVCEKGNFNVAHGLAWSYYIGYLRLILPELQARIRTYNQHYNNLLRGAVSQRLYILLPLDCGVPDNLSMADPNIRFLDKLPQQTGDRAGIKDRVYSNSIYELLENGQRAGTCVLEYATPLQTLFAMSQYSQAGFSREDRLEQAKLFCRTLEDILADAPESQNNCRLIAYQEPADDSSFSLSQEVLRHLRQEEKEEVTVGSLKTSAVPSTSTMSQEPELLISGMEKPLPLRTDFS

`C=CC[C@H]1COc2cc(C(N)=O)cc3nc(NC(=O)c4cc(C)nn4CCC)n1c23` [Example 11, (S)-3-allyl-2-(3-methyl-1-propyl-1H-pyrazole-5-carboxamido)-3,4-dihydro-5-oxa-1,2a-diazaacenaphthylene-7-carboxamide]: the ΔTm at 100 µM in experiment [1] was found to be 5.5 °C. In addition, the EC50 in the experiment with Human PBMC cells was found to be 17000 nM.

With `CCn1nc(C)cc1C(=O)Nc1nc2cc(C(N)=O)ccc2n1CCC[C@H]1COc2cc(C(N)=O)cc3nc(NC(=O)c4cc(C)nn4CC)n1c23` [Example 18, (S)-3-(3-(5-carbamoyl-2-(1-ethyl-3-methyl-1H-pyrazole-5-carboxamido)-1H-benzo[d]imidazol-1-yl)propyl)-2-(1-ethyl-3-methyl-1H-pyrazole-5-carboxamido)-3,4-dihydro-5-oxa-1,2a-diazaacenaphthylene-7-carboxamide], the EC50 was determined as 160 nM in experiment [2] and 300 nM in the experiment with Human PBMC cells.

Consider `C=CC[C@H]1COc2cc(C(N)=O)cc3nc(NC(=O)c4cc(C)nn4CC)n1c23` [Example 1, (S)-3-allyl-2-(1-ethyl-3-methyl-1H-pyrazole-5-carboxamido)-3,4-dihydro-5-oxa-1,2a-diazaacenaphthylene-7-carboxamide], for which the ΔTm at 100 µM in experiment [1] was found to be 5.7 °C. Further, the figures for the EC50 (in experiment [2]; with Human PBMC cells) were 1600 nM and 1100 nM, respectively.

In the case of `CCn1nc(C)cc1C(=O)Nc1nc2cc(C(N)=O)cc(OCCCO)c2n1CCC[C@H]1COc2cc(C(N)=O)cc3nc(NC(=O)c4cc(C)nn4CC)n1c23` [Example 19, (S)-3-(3-(5-carbamoyl-2-(1-ethyl-3-methyl-1H-pyrazole-5-carboxamido)-7-(3-hydroxypropoxy)-1H-benzo[d]imidazol-1-yl)propyl)-2-(1-ethyl-3-methyl-1H-pyrazole-5-carboxamido)-3,4-dihydro-5-oxa-1,2a-diazaacenaphthylene-7-carboxamide], the EC50 in the experiment on Human PBMC cells came to 700 nM.

With `CCn1nc(C)cc1C(=O)Nc1nc2cc(C(N)=O)cc(OC)c2n1CC=C[C@H]1COc2cc(C(N)=O)cc3nc(NC(=O)c4cc(C)nn4CC)n1c23` [Example 14, (S)-3-(3-(5-carbamoyl-2-(1-ethyl-3-methyl-1H-pyrazole-5-carboxamido)-7-methoxy-1H-benzo[d]imidazol-1-yl)prop-1-en-1-yl)-2-(1-ethyl-3-methyl-1H-pyrazole-5-carboxamido)-3,4-dihydro-5-oxa-1,2a-diazaacenaphthylene-7-carboxamide], the ΔTm at 100 µM in experiment [1] was determined as 4 °C. Also, in the experiment with Human PBMC cells, it took 1800 nM to reach a half-maximal effect (EC50).

For `C/C=C\C[C@H]1COc2cc(C(N)=O)cc3nc(NC(=O)c4cc(C)nn4CC)n1c23` [Example 5-2, (S,Z)-3-(but-2-en-1-yl)-2-(1-ethyl-3-methyl-1H-pyrazole-5-carboxamido)-3,4-dihydro-5-oxa-1,2a-diazaacenaphthylene-7-carboxamide], the EC50 came to 1300 nM in experiment [2] and 1900 nM in the experiment on Human PBMC cells.

In the case of `CCn1nc(C)cc1C(=O)Nc1nc2cc(C(N)=O)cc(OCCCN3CCOCC3)c2n1CCC[C@H]1COc2cc(C(N)=O)cc3nc(NC(=O)c4cc(C)nn4CC)n1c23` [Example 22, (S)-3-(3-(5-carbamoyl-2-(1-ethyl-3-methyl-1H-pyrazole-5-carboxamido)-7-(3-morpholinopropoxy)-1H-benzo[d]imidazol-1-yl)propyl)-2-(1-ethyl-3-methyl-1H-pyrazole-5-carboxamido)-3,4-dihydro-5-oxa-1,2a-diazaacenaphthylene-7-carboxamide], the EC50 in experiment [2] was 100 nM; with Human PBMC cells, 340 nM.

In the case of `CCn1nc(C)cc1C(=O)Nc1nc2cc(C(N)=O)cc(OC)c2n1C/C=C/C[C@H]1COc2cc(C(N)=O)cc3nc(NC(=O)c4cc(C)nn4CC)n1c23` [Example 15, (S,E)-3-(4-(5-carbamoyl-2-(1-ethyl-3-methyl-1H-pyrazole-5-carboxamido)-7-methoxy-1H-benzo[d]imidazol-1-yl)but-2-en-1-yl)-2-(1-ethyl-3-methyl-1H-pyrazole-5-carboxamido)-3,4-dihydro-5-oxa-1,2a-diazaacenaphthylene-7-carboxamide], the ΔTm at 100 µM in experiment [1] came to 3 °C. In addition, the EC50 with Human PBMC cells was 19000 nM.

`CCn1nc(C)cc1C(=O)Nc1nc2cc(C(N)=O)cc(OCCCN(C)C)c2n1CCC[C@H]1COc2cc(C(N)=O)cc3nc(NC(=O)c4cc(C)nn4CC)n1c23` [Example 24, (S)-3-(3-(5-carbamoyl-7-(3-(dimethylamino)propoxy)-2-(1-ethyl-3-methyl-1H-pyrazole-5-carboxamido)-1H-benzo[d]imidazol-1-yl)propyl)-2-(1-ethyl-3-methyl-1H-pyrazole-5-carboxamido)-3,4-dihydro-5-oxa-1,2a-diazaacenaphthylene-7-carboxamide]: the ΔTm at 100 µM in experiment [1] was 12 °C. In experiment [2], this compound displayed an EC50 of 350 nM.

Consider `C/C=C/C[C@H]1COc2cc(C(N)=O)cc3nc(NC(=O)c4cc(C)nn4CC)n1c23` [Example 5-3, (S,E)-3-(but-2-en-1-yl)-2-(1-ethyl-3-methyl-1H-pyrazole-5-carboxamido)-3,4-dihydro-5-oxa-1,2a-diazaacenaphthylene-7-carboxamide], for which the EC50 in experiment [2] came to 1300 nM; in the experiment with Human PBMC cells it was 1500 nM.

Take `CCC=CC[C@H]1COc2cc(C(N)=O)cc3nc(NC(=O)c4cc(C)nn4CC)n1c23` [Example 8, (S)-2-(1-ethyl-3-methyl-1H-pyrazole-5-carboxamido)-3-(pent-2-en-1-yl)-3,4-dihydro-5-oxa-1,2a-diazaacenaphthylene-7-carboxamide]: the shift in melting temperature (ΔTm) at 100 µM in experiment [1] was 7.5 °C. The concentration giving a half-maximal response (EC50) in experiment [2] came out at 2600 nM.

As for `C=CCOc1cc(C(N)=O)cc2nc(NC(=O)c3cc(C)nn3CC)n(CCC[C@H]3COc4cc(C(N)=O)cc5nc(NC(=O)c6cc(C)nn6CC)n3c45)c12` [Example 25, (S)-3-(3-(7-(allyloxy)-5-carbamoyl-2-(1-ethyl-3-methyl-1H-pyrazole-5-carboxamido)-1H-benzo[d]imidazol-1-yl)propyl)-2-(1-ethyl-3-methyl-1H-pyrazole-5-carboxamido)-3,4-dihydro-5-oxa-1,2a-diazaacenaphthylene-7-carboxamide], in experiment [1], the ΔTm at 100 µM is 13 °C. For the same compound, the EC50 in experiment [2] turned out to be 500 nM.
